The values that follow come from PubChem BioAssay (NCI).

Some test systems named below: KM12 colon; HCT-15 colon; SF-539 CNS; EKVX NSCLC; SK-OV-3 ovarian; MCF7 breast; ACHN renal; SK-MEL-28 melanoma; UACC-257 melanoma; 786-0 renal.
Common to all, as to experiment: DTP human tumour cell line panel, 48 h

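Grown in 96-well plates, cells were treated for 48 hours with each compound at five concentrations. Insufficient inhibition: endpoint recorded as highest concentration tested. At the GI50, growth is halved. TGI: total growth inhibition.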

For `Cc1[nH]nc(C(F)(F)F)c1N=NN1CCOCC1`, the TGI with KM12 colon was found to be 21.9 µM; with HCT-15 colon it was 25.8 µM; with SF-539 CNS, 28.6 µM; with EKVX NSCLC it was 21.3 µM; with SK-OV-3 ovarian it was 31.7 µM; with MCF7 breast it was 21 µM. For the same molecule, the TGI in the assay with ACHN renal worked out at 17.7 µM; in the assay with SK-MEL-28 melanoma, 32.7 µM; in the assay with UACC-257 melanoma, 24.4 µM.
Take `CC1CCC(=O)C(C(=O)CC2CC(=O)N(C)C(=O)C2)C1` (stereo not drawn): the TGI in the assay on KM12 colon, with HCT-15 colon, in the assay with SF-539 CNS, in the assay on 786-0 renal, in the assay with EKVX NSCLC and in the assay on SK-OV-3 ovarian was > 100 µM in each case. Further, the TGI in the assay with MCF7 breast, in the assay with ACHN renal, in the assay on SK-MEL-28 melanoma and with UACC-257 melanoma was > 100 µM in each case.
Turning to `CC(O)C1(CNc2cc(Cl)nc(N)n2)CCC1` (stereo not drawn), the TGI in the assay with KM12 colon, with HCT-15 colon, in the assay with SF-539 CNS, in the assay on 786-0 renal, with EKVX NSCLC and with SK-OV-3 ovarian was > 100 µM each time. Besides, the TGI with MCF7 breast, in the assay with ACHN renal, in the assay with SK-MEL-28 melanoma and with UACC-257 melanoma was > 100 µM throughout.
With `O=[N+]([O-])/C(C(Cl)=C(Cl)Cl)=C(/Cl)Sc1ccccc1`, the TGI came out at 32 µM in the assay with KM12 colon; 4.85 µM in the assay with HCT-15 colon; 3.78 µM in the assay on SF-539 CNS; 2.62 µM in the assay on 786-0 renal; 33.4 µM in the assay on EKVX NSCLC; 34.3 µM with SK-OV-3 ovarian. Also, the TGI is 2.99 µM in the assay with MCF7 breast, 3.93 µM in the assay with ACHN renal, 3.28 µM in the assay with SK-MEL-28 melanoma and 2.55 µM with UACC-257 melanoma.
`CC#CCOC(=O)c1ccccc1OC(C)=O`: the TGI with KM12 colon, in the assay with HCT-15 colon, in the assay with SF-539 CNS, in the assay on 786-0 renal, in the assay with EKVX NSCLC and with SK-OV-3 ovarian was > 100 µM each time. Further, the TGI with MCF7 breast, in the assay on ACHN renal and in the assay on UACC-257 melanoma was > 100 µM each time.
`CC12CC(c3ccccc3O1)C(C(=O)Nc1ccc(Cl)cc1Cl)C(=O)N2` (stereo not drawn): the total growth inhibition concentration (TGI) in the assay with KM12 colon was > 100 µM; in the assay on HCT-15 colon it was > 100 µM; in the assay on SF-539 CNS, > 100 µM; with 786-0 renal, 43.8 µM; in the assay with EKVX NSCLC it was 50.2 µM; in the assay on SK-OV-3 ovarian it was > 100 µM. For the same molecule, the TGI in the assay with MCF7 breast was > 100 µM; in the assay with ACHN renal, 67.3 µM; with SK-MEL-28 melanoma, > 100 µM; in the assay with UACC-257 melanoma, > 100 µM.
As for `CCC(/C=C/C1OC(=O)C=CC1C)=C\C(C)C/C=C/C(C)=C/C(C)C(=O)C(C)C(O)C(C)C/C(C)=C/C(=O)O` (stereo not drawn), the GI50 in the assay with HCT-15 colon is 1.72 pM; with SF-539 CNS, 0.00202 nM; with EKVX NSCLC it was 1.29 µM; with SK-OV-3 ovarian it was 0.0954 nM; with MCF7 breast it was < 1 pM; with SK-MEL-28 melanoma it was 0.00451 nM. Also, the GI50 in the assay on UACC-257 melanoma is 0.000294 µM. Moreover, the TGI in the assay with EKVX NSCLC is 11.4 µM; in the assay on SK-OV-3 ovarian it was 14.3 µM; with UACC-257 melanoma, 6.25 µM.
Regarding `CCOC(=O)NC(Nc1ccc(S(=O)(=O)Nc2nc(C)cc(C)n2)cc1)(C(=O)OCC)C(F)(F)F` (stereo not drawn), the TGI with KM12 colon, in the assay with HCT-15 colon, in the assay on SF-539 CNS, in the assay on 786-0 renal, in the assay with EKVX NSCLC and in the assay with SK-OV-3 ovarian was > 100 µM throughout. Also, the TGI with MCF7 breast, in the assay with ACHN renal and in the assay on SK-MEL-28 melanoma was > 100 µM throughout.
`O=c1cc(-c2cccc3ccccc23)[nH]c2ncccc12`: the TGI is 10.3 µM in the assay on HCT-15 colon; > 100 µM with 786-0 renal; > 100 µM in the assay on EKVX NSCLC; 4.25 µM in the assay with MCF7 breast; > 100 µM in the assay on ACHN renal; > 100 µM in the assay on SK-MEL-28 melanoma. Also, the GI50 is 15.9 nM in the assay with SF-539 CNS; 0.0239 µM in the assay with EKVX NSCLC; 14.7 nM with SK-OV-3 ovarian; 0.0425 µM in the assay with ACHN renal; 15.8 nM in the assay on SK-MEL-28 melanoma.
As for `COc1cc2c(C)cc(O)cc2c2cc(O)c(C)cc12`, the TGI in the assay with KM12 colon was determined as 20.2 µM; with HCT-15 colon, 17.9 µM; in the assay on SF-539 CNS it was 19.1 µM; in the assay on 786-0 renal, 17.7 µM; in the assay with EKVX NSCLC it was 22.6 µM; in the assay with SK-OV-3 ovarian, 23.8 µM. The TGI worked out at 20.5 µM with MCF7 breast, 22.6 µM with ACHN renal and 22.8 µM with UACC-257 melanoma.
Take `Cn1ccc(C(=O)NCCN(CCNC(=O)c2ccn(C)c(=O)c2O)CCNC(=O)c2cccc(=O)n2O)c(O)c1=O`: the TGI in the assay with KM12 colon, in the assay on HCT-15 colon, with SF-539 CNS, with 786-0 renal, in the assay with SK-OV-3 ovarian and with MCF7 breast was > 100 µM in each case. Moreover, the TGI in the assay with ACHN renal, with SK-MEL-28 melanoma and with UACC-257 melanoma was > 100 µM each time.
As for `O=C(/C=C/c1cc2ccccc2o1)N1CCN(c2ccccn2)CC1`, the TGI in the assay with KM12 colon, in the assay with HCT-15 colon, in the assay with SF-539 CNS, in the assay on 786-0 renal, with EKVX NSCLC and in the assay with SK-OV-3 ovarian was > 100 µM each time. Also, the TGI in the assay on MCF7 breast, in the assay with SK-MEL-28 melanoma and with UACC-257 melanoma was > 100 µM throughout.
`Cc1nn(-c2ccccc2)c2c1C(c1ccc(Cl)cc1)NC(=S)N2` (stereo not drawn): the TGI was found to be 64.8 µM in the assay with KM12 colon; 37.7 µM in the assay with HCT-15 colon; 37.4 µM in the assay with SF-539 CNS; 36.8 µM in the assay with 786-0 renal; 90.8 µM with EKVX NSCLC; 59.8 µM in the assay with SK-OV-3 ovarian. Also, the results for the TGI with MCF7 breast, with ACHN renal and in the assay with UACC-257 melanoma were > 100 µM, 38.4 µM and > 100 µM, respectively.
As for `CCCCNC(=S)Nc1nc(C(=O)NNC(=S)Nc2ccccc2)cs1`, the total growth inhibition concentration (TGI) in the assay on KM12 colon, with HCT-15 colon, in the assay on SF-539 CNS, in the assay on 786-0 renal, with EKVX NSCLC and in the assay with SK-OV-3 ovarian was > 100 µM each time. For the same molecule, the concentration for total growth inhibition (TGI) with MCF7 breast, in the assay with ACHN renal and in the assay with UACC-257 melanoma was > 100 µM throughout.
